{"source": "patent EP4813993A1", "about": "“COMPOUND, PREPARATION METHOD THEREFOR, AND USE THEREOF” (Sichuan Kelun Pharmaceutical Research Institute Co., Ltd., priority 2023, dated 2025)", "key": {"[1]": {"tested_on": "formalin pain model", "experiment": "Rat formalin pain model", "format": "in vivo, SD rats", "description": "Experimental Example 10: Pharmacodynamic effect study of compounds in rat formalin pain model\nExperimental animals: SD rats, male, 180-200 g.\nCompound preparation: 5% (final preparation volume) of DMSO was added to dissolve the test compound, and then 10% (final preparation volume) of Cremophor EL and 85% Saline were sequentially added; an appropriate amount of Etoricoxib was weighed, 5% (final preparation volume) of DMSO was added to dissolve the test compound, and then 5% (final preparation volume) of HS-15 and 90% Saline were sequentially added; the tramadol injection was diluted with normal saline to the desired concentration.\nEach group consisted of 10 animals, and 50 µL of a 5% formalin solution was injected using a microsyringe into the right plantar region.\n2. Administration and test\nBased on different pharmacokinetic properties of the drugs, the administration was performed at 0 min, 60 min, and 120 min before modeling. After injection of the formalin, the number of pain responses in the rats was observed. […] Spontaneous pain responses were observed once every 5 min, and the number of pain responses in the rats within 1 min was counted, with a total observation duration of 60 min. Inhibition rate = (number of pain responses in control group - number of pain responses in administration group)/number of pain responses in control group × 100%.\nTable 12. Administration information of compounds of the present disclosure in rat formalin model"}, "[2]": {"experiment": "Pharmacokinetic study in ICR mice", "format": "in vivo", "details": "male, mouse, plasma", "description": "Experimental Example 3: Pharmacokinetic study of compounds in ICR mice\nExperimental animals: ICR mice, male, 6-8 weeks old.\nCompound preparation: 5% (final preparation volume) of DMSO was added to dissolve the test compound, and then 10% (final preparation volume) of Cremophor EL and 85% Saline were sequentially added.\nThe injection group was given free access to food and water. The oral group was fasted overnight (> 12 h) with free access to water, and was fed 4 h after administration. Blood samples were collected from the jugular vein of ICR mice at the following time points: 5 min, 15 min, 0.5 h, 1 h, 2 h, 4 h, 8 h, and 24 h after injection administration; 15 min, 0.5 h, 1 h, 2 h, 4 h, 6 h, 8 h, and 24 h after oral administration. The collected blood samples were anticoagulated, placed in an ice bath, and then centrifuged for 5 min to separate plasma. The plasma was stored at -70 °C for analysis.\nSample test: The concentrations of the designated compound drugs in plasma were determined by the LC-MS/MS method; the main pharmacokinetic parameters were calculated using the Winnolin 8.3 non-compartmental model. Pharmacokinetic test results of some compounds of the present disclosure in ICR mice"}, "[3]": {"biological_target": "T1, Nav1.8 channels (Homo sapiens, UniProt Q9Y5Y9)", "T1 construct": "expressed in transfected cells", "T1 sequence (Q9Y5Y9 whole entry, the tested form may be a part)": "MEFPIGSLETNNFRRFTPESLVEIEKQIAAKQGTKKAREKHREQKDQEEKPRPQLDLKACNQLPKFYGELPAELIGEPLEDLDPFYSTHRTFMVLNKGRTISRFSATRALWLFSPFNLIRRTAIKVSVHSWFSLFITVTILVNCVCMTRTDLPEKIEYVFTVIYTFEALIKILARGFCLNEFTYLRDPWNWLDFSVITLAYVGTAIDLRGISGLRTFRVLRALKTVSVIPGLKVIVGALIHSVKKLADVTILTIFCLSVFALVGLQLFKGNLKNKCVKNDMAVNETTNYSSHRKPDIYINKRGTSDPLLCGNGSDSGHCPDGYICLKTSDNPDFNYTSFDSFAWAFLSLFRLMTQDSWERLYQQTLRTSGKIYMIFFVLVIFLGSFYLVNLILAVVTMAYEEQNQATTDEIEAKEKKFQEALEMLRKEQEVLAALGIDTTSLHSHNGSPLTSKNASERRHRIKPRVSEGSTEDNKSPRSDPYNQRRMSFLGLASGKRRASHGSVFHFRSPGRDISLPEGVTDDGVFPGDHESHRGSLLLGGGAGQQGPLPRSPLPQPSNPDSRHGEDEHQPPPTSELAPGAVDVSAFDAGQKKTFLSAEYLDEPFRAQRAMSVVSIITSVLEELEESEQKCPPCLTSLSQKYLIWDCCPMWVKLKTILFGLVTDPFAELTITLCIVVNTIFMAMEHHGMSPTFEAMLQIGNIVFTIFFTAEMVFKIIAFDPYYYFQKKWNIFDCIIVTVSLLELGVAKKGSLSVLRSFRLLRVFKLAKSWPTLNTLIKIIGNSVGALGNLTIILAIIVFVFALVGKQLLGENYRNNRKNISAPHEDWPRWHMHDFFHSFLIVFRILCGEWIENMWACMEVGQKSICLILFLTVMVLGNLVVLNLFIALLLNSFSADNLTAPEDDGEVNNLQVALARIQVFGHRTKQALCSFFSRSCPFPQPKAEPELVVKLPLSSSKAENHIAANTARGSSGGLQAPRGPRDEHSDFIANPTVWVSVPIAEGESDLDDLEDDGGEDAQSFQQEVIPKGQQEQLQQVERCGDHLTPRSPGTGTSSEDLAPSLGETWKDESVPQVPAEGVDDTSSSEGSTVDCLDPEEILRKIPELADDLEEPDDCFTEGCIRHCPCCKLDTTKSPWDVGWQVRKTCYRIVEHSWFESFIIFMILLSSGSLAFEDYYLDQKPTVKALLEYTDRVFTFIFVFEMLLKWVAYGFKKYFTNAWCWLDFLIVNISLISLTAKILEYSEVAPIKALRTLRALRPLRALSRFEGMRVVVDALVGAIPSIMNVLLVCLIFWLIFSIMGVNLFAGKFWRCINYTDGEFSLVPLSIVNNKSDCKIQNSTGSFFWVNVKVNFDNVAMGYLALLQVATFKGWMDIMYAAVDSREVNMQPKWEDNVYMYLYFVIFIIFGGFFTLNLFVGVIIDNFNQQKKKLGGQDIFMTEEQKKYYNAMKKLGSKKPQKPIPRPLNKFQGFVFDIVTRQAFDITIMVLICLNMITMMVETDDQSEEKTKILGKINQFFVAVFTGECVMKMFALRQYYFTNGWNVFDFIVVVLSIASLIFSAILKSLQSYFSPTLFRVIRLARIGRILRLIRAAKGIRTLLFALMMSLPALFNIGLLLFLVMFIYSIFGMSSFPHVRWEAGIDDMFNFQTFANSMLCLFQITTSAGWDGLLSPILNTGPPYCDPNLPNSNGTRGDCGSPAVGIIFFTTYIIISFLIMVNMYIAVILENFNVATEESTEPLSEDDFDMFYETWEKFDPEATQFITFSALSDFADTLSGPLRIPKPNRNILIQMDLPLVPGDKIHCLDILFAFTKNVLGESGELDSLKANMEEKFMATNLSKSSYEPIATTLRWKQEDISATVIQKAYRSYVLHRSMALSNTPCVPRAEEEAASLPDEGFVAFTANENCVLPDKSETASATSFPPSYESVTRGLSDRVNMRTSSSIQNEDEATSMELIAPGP", "experiment": "Manual patch-clamp, current of stably overexpressed Nav1.8 channels (resting state voltage program)", "format": "cell-based", "details": "for inhibition at 0.001 µM: concentration of 1 nM", "method_in_brief": "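Whole-cell manual patch clamp on cells stably overexpressing Nav1.8, held at -120 mV and stepped to 0 mV for 50 ms every 20 s (resting-state protocol). Compounds were perfused in ascending concentrations, each for 5 min or until stable; block of peak current was calculated at steady state.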"}}}
{"smiles": "COc1cccc(C2(O)CCCCC2CN(C)C)c1", "note": "(stereo not shown) [Tramadol]", "values": [{"measurement": "Number of pain responses 0 min", "setting": "[1]; SD rats, 10 mg/kg i.v. immediately before 5% formalin, 0 min, Mean + SD, n = 10", "result": "31.9±15.0"}, {"measurement": "Number of pain responses 10 min", "setting": "[1]; SD rats, 10 mg/kg i.v. immediately before 5% formalin, 10 min, Mean + SD, n = 10", "result": "1.9±3.0"}, {"measurement": "Number of pain responses 15 min", "setting": "[1]; SD rats, 10 mg/kg i.v. immediately before 5% formalin, 15 min, Mean + SD, n = 10", "result": "4.1±4.4"}, {"measurement": "Number of pain responses 30 min", "setting": "[1]; SD rats, 10 mg/kg i.v. immediately before 5% formalin, 30 min, Mean + SD, n = 10", "result": "12.8±6.7"}, {"measurement": "Number of pain responses 40 min", "setting": "[1]; SD rats, 10 mg/kg i.v. immediately before 5% formalin, 40 min, Mean + SD, n = 10", "result": "13.2±8.1"}, {"measurement": "Number of pain responses 50 min", "setting": "[1]; SD rats, 10 mg/kg i.v. immediately before 5% formalin, 50 min, Mean + SD, n = 10", "result": "8.6±3.6"}, {"measurement": "Number of pain responses 60 min", "setting": "[1]; SD rats, 10 mg/kg i.v. immediately before 5% formalin, 60 min, Mean + SD, n = 10", "result": "9.3±5.1"}, {"measurement": "analgesic activity in the first and second phases", "setting": "[1]; rat formalin pain model, first phase immediately after injection, second phase about 15-20 min after", "result": "superior analgesic effects in the first and second phases, respectively"}]}
{"smiles": "COc1c([C@@H]2C[C@](C)(C(F)(F)F)S[C@H]2C(=O)Nc2ccc(F)c(OS(N)(=O)=O)c2)ccc(F)c1F", "note": "[a-32-A]", "values": [{"measurement": "AUC(0-inf)", "setting": "[2]; Oral administration, 10 mg/kg", "result": 22900, "unit": "ng·h/mL"}, {"measurement": "AUC(0-inf)", "setting": "[2]; iv, Injection (i.v.), 2 mg/kg", "result": 7390, "unit": "ng·h/mL"}, {"measurement": "IC50", "setting": "[3]", "result": 0.1, "unit": "nM"}]}
{"smiles": "COc1c([C@@H]2C[C@](C)(C(F)(F)F)S[C@H]2C(=O)Nc2cccc(OS(N)(=O)=O)c2)ccc(F)c1F", "note": "[a-39-A, (3-((2R,3S,5R)-3-(3,4-difluoro-2-methoxyphenyl)-5-methyl-5-(trifluoromethyl)tetrahydrothiophene-2-carboxamido)phenyl sulfamate]", "values": [{"measurement": "inhibition at 0.001 µM", "setting": "[3]; read-out: Inhibition rate %", "result": 72, "unit": "%"}]}
{"smiles": "COc1c([C@@H]2C[C@](C)(C(F)(F)F)S[C@H]2C(=O)Nc2cccc(C3N=N3)c2)ccc(F)c1F", "note": "[a-41-A, (2R,3S,5R)-N-(3-(3H-diazirin-3-yl)phenyl)-3-(3,4-difluoro-2-methoxyphenyl)-5-methyl-5-(trifluoromethyl)tetrahydrothiophene-2-carboxamide]", "values": [{"measurement": "inhibition at 0.01 µM", "setting": "[3]; concentration of 10 nM, read-out: Inhibition rate %", "result": 80.6, "unit": "%"}]}
{"smiles": "COc1c([C@@H]2C[C@](C)(C(F)(F)F)S[C@H]2C(=O)Nc2cccc(-c3ncon3)c2)ccc(F)c1F", "note": "[a-42-A, (2R,3S,5R)-N-(3-(1,2,4-oxadiazol-3-yl)phenyl)-3-(3,4-difluoro-2-methoxyphenyl)-5-methyl-5-(trifluoromethyl)tetrahydrothiophene-2-carboxamide]", "values": [{"measurement": "inhibition at 0.001 µM", "setting": "[3]; read-out: Inhibition rate %", "result": 42, "unit": "%"}]}
{"smiles": "COc1c([C@@H]2C[C@](C)(C(F)(F)F)S[C@H]2C(=O)Nc2nn(S(=O)(=O)C(F)(F)F)cc2C)ccc(F)c1F", "note": "[a-43-A, (2R,3S,5R)-3-(3,4-difluoro-2-methoxyphenyl)-5-methyl-N-(4-methyl-1-((trifluoromethyl)sulfonyl)-1H-pyrazol-3-yl)-5-(trifluoromethane)tetrahydrothiophene-2-carboxamide]", "values": [{"measurement": "inhibition at 0.001 µM", "setting": "[3]; read-out: Inhibition rate %", "result": 40.1, "unit": "%"}]}
{"smiles": "CCS(=O)(=O)Nc1cccc(NC(=O)[C@@H]2S[C@@](C)(C(F)(F)F)C[C@H]2c2ccc(F)c(F)c2OC)c1", "note": "[a-44-A, (2R,3S,5R)-3-(3,4-difluoro-2-methoxyphenyl)-N-(3-(ethylsulfonamido)phenyl)-5-methyl-5-(trifluoromethyl)tetrahydrothiophene-2-carboxamide]", "values": [{"measurement": "inhibition at 0.001 µM", "setting": "[3]; read-out: Inhibition rate %", "result": 49.9, "unit": "%"}]}
{"smiles": "COc1c([C@@H]2C[C@](C)(C(F)(F)F)S[C@H]2C(=O)Nc2cccc(S(=O)(=O)NCCN)c2)ccc(F)c1F", "note": "[a-45-A, (2R,3S,5R)-N-(3-(N-(2-aminoethyl)sulfamoyl)phenyl)-3-(3,4-difluoro-2-methoxyphenyl)-5-methyl-5-(trifluoromethyl)tetrahydrothiophene-2-carboxamide]", "values": [{"measurement": "IC50", "setting": "[3]", "result": 0.024, "unit": "nM"}]}
{"smiles": "COc1c([C@@H]2C[C@](C)(C(F)(F)F)S[C@H]2C(=O)N(O)c2ccnc(-c3ncon3)c2)ccc(F)c1F", "note": "[a-46-A, (2R,3S,5R)-N-(2-(1,2,4-oxadiazol-3-yl)pyridin-4-yl)-3-(3,4-difluoro-2-methoxyphenyl)-N-hydroxy-5-methyl-5-(trifluoromethyl)tetrahydrothiophene-2-carboxamide]", "values": [{"measurement": "inhibition at 0.001 µM", "setting": "[3]; read-out: Inhibition rate %", "result": 46.7, "unit": "%"}]}
{"smiles": "COc1c([C@@H]2C[C@](C)(C(F)(F)F)S[C@H]2C(=O)Nc2ccnc(-c3ncon3)c2)ccc(F)c1F", "note": "[a-48-A, (2R,3S,5R)-3-(3,4-difluoro-2-methoxy-phenyl)-5-methyl-N-[2-(1,2,4-oxadiazol-3-yl)-4-pyridyl]-5-(trifluoromethyl)tetrahydrothiophene-2-carboxamide]", "values": [{"measurement": "inhibition at 0.001 µM", "setting": "[3]; read-out: Inhibition rate %", "result": 71.9, "unit": "%"}]}
{"smiles": "COc1c([C@@H]2C[C@](C)(C(F)(F)F)S[C@H]2C(=O)Nc2ccnc(SCN)c2)ccc(F)c1F", "note": "[a-51-A, (2R,3S,5R)-N-(2-aminomethylthio-4-pyridyl)-3-(3,4-difluoro-2-methoxy-phenyl)-5-methyl-5-(trifluoromethyl)tetrahydrothiophene-2-carboxamide]", "values": [{"measurement": "inhibition at 0.001 µM", "setting": "[3]; read-out: Inhibition rate %", "result": 88.5, "unit": "%"}]}
{"smiles": "COc1c([C@@H]2C[C@](C)(C(F)(F)F)S[C@H]2C(=O)Nc2cccc(NS(=O)(=O)CC(C)N)c2)ccc(F)c1F", "note": "(stereo partly drawn) [a-56-A, (2R,3S,5R)-N-(3-((2-aminopropyl)sulfonamido)phenyl)-3-(3,4-difluoro-2-methoxyphenyl)-5-methyl-5-(trifluoromethyl)tetrahydrothiophene-2-carboxamide]", "values": [{"measurement": "inhibition at 0.001 µM", "setting": "[3]; read-out: Inhibition rate %", "result": 66.4, "unit": "%"}]}
{"smiles": "COc1c([C@@H]2C[C@](C)(C(F)(F)F)S[C@H]2C(=O)Nc2ccnc(S(=O)(=O)N=[N+]=[N-])c2)ccc(F)c1F", "note": "[a-66-A, 4-((2R,3S,5R)-3-(3,4-difluoro-2-methoxyphenyl)-5-methyl-5-(trifluoromethyl)tetrahydrothiophene-2-carboxamido)pyridine-2-sulfonyl azide]", "values": [{"measurement": "IC50", "setting": "[3]", "result": 0.26, "unit": "nM"}]}
{"smiles": "COc1c([C@@H]2C[C@](C)(C(F)(F)F)S[C@H]2C(=O)Nc2ccnc(C3(C#N)CC3)c2)ccc(F)c1F", "note": "[a-73-A, (2R,3S,5R)-N-(2-(1-cyanocyclopropyl)pyridin-4-yl)-3-(3,4-difluoro-2-methoxyphenyl)-5-methyl-5-(trifluoromethyl)tetrahydrothiophene-2-carboxamide]", "values": [{"measurement": "inhibition at 0.001 µM", "setting": "[3]; read-out: Inhibition rate %", "result": 58.8, "unit": "%"}]}
{"smiles": "COc1c(C2CC(C)(C(F)(F)F)SC2C(=O)Nc2ccc(NC(=O)CN=[N+]=[N-])cc2)ccc(F)c1F", "note": "(stereo not shown) [a-75-A, N-(4-(2-azidoacetamido)phenyl)-3-(3,4-difluoro-2-methoxyphenyl)-5-methyl-5-(trifluoromethyl)tetrahydrothiophene-2-carboxamide]", "values": [{"measurement": "inhibition at 0.001 µM", "setting": "[3]; read-out: Inhibition rate %", "result": 55.2, "unit": "%"}]}
{"smiles": "COc1c([C@@H]2C[C@](C)(C(F)(F)F)S[C@H]2C(=O)Nc2ccnc(SC#N)c2)ccc(F)c1F", "note": "[a-80-A, (2R,3S,5R)-3-(3,4-difluoro-2-methoxyphenyl)-5-methyl-N-(2-thiocyanatopyridin-4-yl)-5-(trifluoromethyl)tetrahydrothiophene-2-carboxamide]", "values": [{"measurement": "IC50", "setting": "[3]", "result": 0.19, "unit": "nM"}]}
{"smiles": "COc1c([C@@H]2C[C@](C)(C(F)(F)F)S[C@H]2C(=O)Nc2ccc(F)c(C=O)c2)ccc(F)c1F", "note": "[a-84-A, (2R,3S,5R)-3-(3,4-difluoro-2-methoxyphenyl)-N-(4-fluoro-3-formylphenyl)-5-methyl-5-(trifluoromethyl)tetrahydrothiophene-2-carboxamide]", "values": [{"measurement": "inhibition at 0.001 µM", "setting": "[3]; read-out: Inhibition rate %", "result": 69.3, "unit": "%"}]}
{"smiles": "COc1c([C@@H]2C[C@](C)(C(F)(F)F)S[C@H]2C(=O)Nc2ccnc(C(=O)NO)c2)ccc(F)c1F", "note": "[a-87-A, 4-((2R,3S,5R)-3-(3,4-difluoro-2-methoxyphenyl)-5-methyl-5-(trifluoromethyl)tetrahydrothiophene-2-carboxamido)-N-hydroxypicolinamide]", "values": [{"measurement": "inhibition at 0.001 µM", "setting": "[3]; read-out: Inhibition rate %", "result": 47.7, "unit": "%"}]}
{"smiles": "COc1c([C@@H]2C[C@](C)(C(F)(F)F)S[C@H]2C(=O)Nc2ccc(F)c(/C=C(\\C#N)C(N)=O)c2)ccc(F)c1F", "note": "[a-89-A, (2R,3S,5R)-N-(3-((E)-3-amino-2-cyano-3-oxopropen-1-yl)-4-fluorophenyl)-3-(3,4-difluoro-2-methoxyphenyl)-5-methyl-5-(trifluoromethyl)tetrahydrothiophene-2-carboxamide]", "values": [{"measurement": "inhibition at 0.001 µM", "setting": "[3]; read-out: Inhibition rate %", "result": 51.5, "unit": "%"}]}
